Reference: US20230147455A1, “COMPOUNDS FOR THE PROPHYLAXIS AND/OR TREATMENT OF ACUTE RESPIRATORY DISTRESS SYNDROME” (SERVICIO ANDALUZ DE SALUD, priority 2020, published 2023)
Like-named read-outs stand apart in the source and are kept apart here.

Assays:
[1] = tested on: SARS-CoV-2; test: Pilot randomized clinical trial: ICU admission of hospitalized patients with or without calcifediol; format: in vivo; conditions: calcifediol YES group, 42 patients
Procedure: Preliminary study performed from 10 Mar. 2020 on 72 patients admitted in pneumology department at Hospital Universitario Reina Sofia in Cordoba, according to hospital protocol.
Administration of vitamin D (calcifediol):
The difference is statistically significant: Chi-squared with Yates' correction p=0.0001.
As shown in the results, progression of the disease requiring admission to the ICU occurred in only 1 of all the patients who were treated with calcifediol.

[2] = tested on: COVID-19; test: Retrospective multicenter cohort study of patients hospitalized with COVID-19, intrahospital mortality; format: in vivo, human
[3] = 14 clinical trials with 1303 patients; cited from earlier work
[4] = phase III study conducted in 2000; cited from earlier work
[5] = tested on: renin and Ang II; conditions: rat lung tissues treated with lipopolysaccharide; cited from earlier work
[6] = in vivo; cited from earlier work
[7] = cited from earlier work
[8] = patients with ALI and ARDS; cited from earlier work

In the case of `C=C1CC[C@H](O)C/C1=C/C=C1\CCC[C@]2(C)[C@@H]([C@H](C)CCCC(C)(C)O)CC[C@@H]12` [calcifediol, 25-hydroxycholecalciferol], the “ICU NO (number of patients not admitted to the ICU)” value [1] is reported as 41, the “ICU YES (number of patients admitted to the ICU)” value ([1]; vs 13 of 30 without calcifediol, Chi-squared with Yates' correction p=0.0001) is reported as 1 and the mortality rate ([2]; 79 hospitalized COVID-19 patients who received calcifediol, vs 20.7% without, p <0.001) is reported as 5.1%. The HR for mortality ([2]; fitted Cox proportional hazards models, calcifediol vs no calcifediol) was 0.17 (95% CI: 0.05 to 0.51), the “death OR” value ([2]; patients who received calcifediol compared with patients who did not) was 0.20 (95% CI, 0.07 to 0.57) and the “reduction of ICU admissions and death by process” value ([2]; patients with COVID-19, general statement at head of Example 2) was “at least 25%”.
In the case of nitric oxide [inhaled NO], the “oxygenation, survival, days off a ventilator” value [3] is given as “only a temporary improvement in oxygenation without the benefit of survival or an increase in days off a ventilator”.
For `CC(=O)N1CCN(c2ccc(OCC3COC(Cn4ccnc4)(c4ccc(Cl)cc4Cl)O3)cc2)CC1` (centres unmarked) [Ketoconazole], the “mortality and secondary outcome measures” value [4] is listed as “did not show any improvement in mortality or in secondary outcome measures”.
In the case of `C=C1/C(=C\C=C2/CCC[C@]3(C)[C@@H]([C@H](C)CCCC(C)(C)O)CC[C@@H]23)C[C@@H](O)C[C@@H]1O` [Calcitriol, 1-alpha,25-dihydroxycholecalciferol], the “expression of renin and Ang II” value [5] is given as “suppresses the expression of renin and Ang II”.
For `C[C@H](/C=C/[C@H](C)C(C)(C)O)[C@H]1CC[C@H]2/C(=C/C=C3C[C@@H](O)C[C@H](O)C3)CCC[C@]12C` [Paricalcitol, 19-nor-1,25-(OH)2-vitamin D2], the “effect on LPS-induced acute lung injury” value [6] is given as “improved the LPS-induced acute lung injury or SARS by maintaining the alveolar barrier function”.
In the case of vitamin D, the “mortality at 28 days” value ([7]; by intramuscular or intravenous injection, vs placebo 40.8%) is listed as 25.6%, the “OR, mortality at 28 days” value ([7]; grouped analysis of the 9 RCTs, 95% CI 0.46-1.15) is listed as 0.73 and the “mortality at 28 days” value ([7]; grouped analysis of the 9 RCTs, vs placebo 21.7%) is listed as 20.4%. The “OR, mortality at 28 days” value ([7]; high daily dose, CI 95% 0.51-1.36) was 0.83, the “mortality at 28 days” value ([7]; high daily dose, vs placebo 19.8%) was 20.9% and the “OR, mortality at 28 days” value ([7]; low daily dose, 95% CI 0.32-1.68) was 0.74. For the same molecule, the “mortality at 28 days” value ([7]; low daily dose, vs placebo 21.3%) was 15.6%, the “OR, mortality at 28 days” value ([7]; only enterally, 95% CI 0.88-1.57) was 1.19 and the “mortality at 28 days” value ([7]; only enterally, vs placebo 18.2%) was 19.9%. For the same molecule, the “duration of the stay in the ICU, standard mean difference [SMD]” value ([7]; vitamin D vs placebo, 95% CI −0.61 to 0.01) was −0.30, the “duration of hospital stay, SMD” value ([7]; vitamin D vs placebo) was −0.17 and the “duration of mechanical ventilation, SMD” value ([7]; vitamin D vs placebo) was −0.41.
For `CC(=O)N[C@@H](CS)C(=O)O` [N-acetylcysteine], the mortality benefit [8] is listed as “have not shown any mortality benefits”.
